Source: ChEMBL document CHEMBL1201862, “PubChem BioAssay data set” (2004)
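Grown in 96-well plates, cells were treated for 48 hours with each compound at five concentrations. Insufficient inhibition: endpoint recorded as highest concentration tested. At the GI50, growth is halved.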 The source made the active and inactive calls. Cut-off read from the data, not from the text of the source: active = GI50 up to about 1.1 µM and inactive = higher.

Key:
Assay in all cases: inhibition of tumour cell growth, NCI panel, 48 h
[1] = system: SF-268
[2] = system: CAKI-1
[3] = system: 786-0
[4] = system: HOP-62
[5] = system: A549
[6] = system: RPMI-8226
[7] = system: SK-MEL-2
[8] = system: RXF 631
[9] = system: DMS-114
[10] = system: UO-31
[11] = system: LXFL 529
[12] = system: SN12C
[13] = system: HL-60
[14] = system: HCT-15
[15] = system: EKVX
[16] = system: OVCAR-3
[17] = system: MOLT-4
[18] = system: SK-MEL-28
[19] = system: OVCAR-5
[20] = system: TK-10
[21] = system: Malme-3M
[22] = system: KM12
[23] = system: HOP-92
[24] = system: UACC-62
[25] = system: LOX IMVI
[26] = system: SNB-78
[27] = system: NCI-H522
[28] = system: SW-620
[29] = system: NCI-H226
[30] = system: OVCAR-8
[31] = system: M14
[32] = system: HCC 2998
[33] = system: SF-539
[34] = system: U-251
[35] = system: SF-295
[36] = system: HT-29
[37] = system: K562
[38] = system: NCI-H23
[39] = system: UACC-257
[40] = system: SK-MEL-5
[41] = system: HOP-18
[42] = system: IGROV-1
[43] = system: HCT-116
[44] = system: M19-MEL
[45] = system: OVCAR-4
[46] = system: SR
[47] = system: SNB-19
[48] = system: DLD-1
[49] = system: NCI-H460
[50] = system: CCRF-CEM
[51] = system: SK-OV-3
[52] = system: RXF 393
[53] = system: XF498
[54] = system: ACHN
[55] = system: A498
[56] = system: DMS-273
[57] = system: SNB-75
[58] = system: COLO 205
[59] = system: KM-20L2

Measured: GI50

COC(=O)C1=C(c2ccc(Cl)cc2)C(O)NC(NN)=N1 (stereo not drawn)
inactive: [1] > 100 µM | [2] > 100 µM | [3] > 100 µM | [4] > 100 µM | [5] > 100 µM | [6] > 100 µM | [7] > 100 µM | [8] > 100 µM | [9] > 100 µM | [10] > 100 µM | [11] > 100 µM | [12] > 100 µM | [13] > 100 µM | [15] > 100 µM | [16] > 100 µM | [17] > 100 µM | [18] > 100 µM | [19] > 100 µM | [20] > 100 µM | [21] > 100 µM | [22] > 100 µM | [23] > 100 µM | [24] > 100 µM | [25] > 100 µM | [26] > 100 µM | [27] > 100 µM | [28] > 100 µM | [29] > 100 µM | [30] > 100 µM | [31] > 100 µM | [32] > 100 µM | [33] > 100 µM | [34] > 100 µM | [35] > 100 µM | [36] > 100 µM | [37] > 100 µM | [38] > 100 µM | [39] > 100 µM | [40] > 100 µM | [41] > 100 µM | [42] > 100 µM | [43] > 100 µM | [44] > 100 µM | [45] > 100 µM | [46] > 100 µM | [47] > 100 µM | [48] > 100 µM | [49] > 100 µM | [50] > 100 µM | [51] > 100 µM | [52] > 100 µM | [53] > 100 µM | [54] > 100 µM
> 100 µM: [14]

C[C@]12CCC(=O)CC1CCCC2=O (stereo partly drawn)
> 100 µM: [14]
inactive: [1] > 100 µM | [2] > 100 µM | [3] > 100 µM | [4] > 100 µM | [55] > 100 µM | [5] > 100 µM | [56] > 100 µM | [6] > 100 µM | [7] > 100 µM | [8] > 100 µM | [9] > 100 µM | [10] > 100 µM | [11] > 100 µM | [12] > 100 µM | [13] > 100 µM | [15] > 100 µM | [16] > 100 µM | [17] > 100 µM | [18] > 100 µM | [20] > 100 µM | [21] > 100 µM | [22] > 100 µM | [23] > 100 µM | [24] > 100 µM | [25] > 100 µM | [26] > 100 µM | [27] > 100 µM | [28] > 100 µM | [30] > 100 µM | [31] > 100 µM | [32] > 100 µM | [33] > 100 µM | [34] > 100 µM | [35] > 100 µM | [36] > 100 µM | [37] > 100 µM | [38] > 100 µM | [39] > 100 µM | [40] > 100 µM | [57] > 100 µM | [42] > 100 µM | [43] > 100 µM | [44] > 100 µM | [45] > 100 µM | [47] > 100 µM | [48] > 100 µM | [49] > 100 µM | [50] > 100 µM | [51] > 100 µM | [52] > 100 µM | [53] > 100 µM | [58] > 100 µM

CCCCCCCC1(c2ccc(N)cc2)CCC(=O)NC1=O (stereo not drawn)
36.8 µM: [14]
inactive: [1] 34.4 µM | [2] 27.4 µM | [3] 28.4 µM | [4] 32.9 µM | [5] 31.6 µM | [56] 26.9 µM | [6] 19.1 µM | [7] 35.8 µM | [8] 41 µM | [9] 24.2 µM | [10] 20.5 µM | [11] 29.3 µM | [12] 30 µM | [13] 17 µM | [15] 23.5 µM | [16] 22.6 µM | [17] 23.8 µM | [18] 28.7 µM | [19] 31.6 µM | [20] 49.7 µM | [21] 28.1 µM | [22] 48.4 µM | [23] 15.2 µM | [24] 26.7 µM | [25] 33 µM | [26] 31.6 µM | [27] 27.2 µM | [28] 58.2 µM | [30] 35.8 µM | [31] 32.4 µM | [32] 29.8 µM | [35] 30.4 µM | [37] 28.4 µM | [38] 38.3 µM | [39] 32.9 µM | [40] 20.7 µM | [57] 22.5 µM | [59] 33 µM | [42] 32.3 µM | [44] 37.8 µM | [45] 28.1 µM | [47] 47.4 µM | [48] 33.7 µM | [49] 26.7 µM | [50] > 10 µM | [51] 33 µM | [52] 28 µM | [53] 27.2 µM | [58] 21.9 µM | [54] 18.7 µM

S=C(N/N=C/c1ccccc1)NC12CC3CC(CC(C3)C1)C2
47.8 µM: [14]
inactive: [1] 31.9 µM | [2] 49.3 µM | [3] 56.1 µM | [4] > 100 µM | [55] 63.4 µM | [5] 27.8 µM | [56] 22.6 µM | [6] 22 µM | [7] 40 µM | [8] 44.5 µM | [10] > 100 µM | [11] 64.7 µM | [12] 17.7 µM | [13] 31.2 µM | [15] 71.4 µM | [16] 27.2 µM | [17] 12.3 µM | [18] 59.3 µM | [19] 63.7 µM | [20] > 100 µM | [22] 36.2 µM | [23] 6.18 µM | [24] 27.5 µM | [25] 22.8 µM | [27] 29.5 µM | [28] 30.5 µM | [29] 97.7 µM | [30] 60 µM | [31] 46.6 µM | [33] 12.4 µM | [34] 53.8 µM | [35] 41 µM | [36] 5.31 µM | [37] 9.27 µM | [38] 55.8 µM | [39] 26.1 µM | [40] 27.2 µM | [59] 7.08 µM | [42] > 100 µM | [43] 29.5 µM | [45] 42.2 µM | [46] 18.2 µM | [47] > 100 µM | [49] 39.5 µM | [50] 19.6 µM | [51] > 100 µM | [52] 23.7 µM | [53] 35.8 µM | [58] 27 µM | [54] 51.8 µM

N=C(N)N/N=C(/c1nc2ccc([N+](=O)[O-])cc2[nH]c1=O)C(O)c1ccc([N+](=O)[O-])cc1 (stereo not drawn)
inactive: [1] > 100 µM | [2] 28.4 µM | [3] > 100 µM | [4] 37.8 µM | [5] 60.8 µM | [56] 55.7 µM | [6] > 100 µM | [8] > 100 µM | [9] 8.28 µM | [10] 3.03 µM | [11] 30.8 µM | [12] > 100 µM | [13] > 100 µM | [16] 94.2 µM | [17] > 100 µM | [18] 78.5 µM | [19] > 100 µM | [21] 83.8 µM | [22] 36.1 µM | [23] > 100 µM | [24] 15.7 µM | [25] 38.5 µM | [26] > 100 µM | [27] 4.54 µM | [28] > 100 µM | [29] > 100 µM | [30] > 100 µM | [31] 79.3 µM | [32] 28.5 µM | [33] 31.3 µM | [34] 67.3 µM | [35] > 100 µM | [36] 54.1 µM | [37] > 100 µM | [38] > 100 µM | [39] > 100 µM | [40] 37.5 µM | [57] 86.1 µM | [59] 18 µM | [42] > 100 µM | [43] > 100 µM | [44] > 100 µM | [45] > 100 µM | [46] > 100 µM | [47] > 100 µM | [48] 87.3 µM | [49] 51.3 µM | [50] > 100 µM | [51] > 100 µM | [52] > 100 µM | [53] 40 µM | [58] 79.8 µM | [54] 21.3 µM
11.5 µM: [14]
